Laboratory results: patent US20200316159A1, “SUSTAINED RELEASE COMPOSITIONS OF KAPPA-OPIOID RECEPTOR AGONIST” (JT PHARMACEUTICALS, INC., priority 2016, published 2020)

Key:
kappa opioid receptor = kappa opioid receptor (Homo sapiens, UniProt P41145); assay: Opioid receptor activation assay, DiscoveRx PathHunter Beta-Arrestin, kappa; type: cell-based
Text: Opioid Receptor Activation Assay.
PathHunter™ Beta-Arrestin GPCR Functional Profiling and Screening cell lines that express the individual opioid receptors were obtained from DiscoveRx (Fremont, Calif.). These cells express the kappa (or mu or delta) opioid receptor fused to a proprietary β-galactosidase enzyme fragment and the […]-arrestin gene fused to an enzyme acceptor (the remaining fragment of β-galactosidase). Upon activation of the receptor, β-arrestin is recruited to the GPCR and the β-galactosidase is activated through enzyme complementation. Cells were grown using standard cell culture techniques and then plated at 30,000 cells/well in 90 μl in a 96 well white, clear bottom plate and incubated overnight. Dilutions were prepared in dilution buffer (HBBS, 20 mMHepes, 0.1% BSA) and 10 μl added per well. Plates were then incubated for 90 min at 37° C. in a water-saturated atmosphere. Plates were then allowed to come to room temp and DiscoveRx's proprietary developing agent added as recommended by the manufacturer. This agent contains a detergent, 6-O-β-galactopyranosyl-luciferen and luciferase. Plates were then incubated for 1 hr at room temperature before being read on a luminometer. Antagonist studies were performed in an identical manner except after the overnight incubation 10 μl media was removed and replaced with drug or naloxone at the indicated concentration. […] To calculate % maximal luminescence, background was subtracted from the experimental values and this was divided by maximal luminescence and multiplied by 100.
To confirm this, and to determine their relative activities, we assessed their efficiency using PathHunter™ Beta-Arrestin GPCR Functional Profiling and Screening cell lines from DiscoveRx (Fremont, Calif.) as described in the Materials and Methods section.

[1] = test system: peripheral pain (acetic acid-induced writhing); assay: Acetic acid-induced writhing model (Example 1); type: in vivo, rat (male Sprague-Dawley)
Experimental: Acetic Acid-Induced Writhing Model.
This protocol is a well-established model of peripheral pain. Following oral or i.v. administration of compound, rats are rested for 20 min before i.p. injection with 2 ml/kg of 3% acetic acid. Animals are then rested an additional 10 min before being placed in a 10×10 inch chamber. A video of the rats is then recorded for next 20 min. The video is subsequently blindly scored by an investigator who examines each rat every 20 sec for the entire 20 min (60 individual observations). At each observation rats are scored on whether they are writhing or not. Writhing is defined as a constriction of the abdominal area, often with extension of the hind legs. At the end of the experiment the percent of the time the animal was writhing was calculated. The dose-response curves and EC50 values were generated using GraphPad Prism®.
As an initial biological screen the potential for oral availability of the 18 peptides in our library were evaluated in a well-established model of peripheral pain, the acetic acid-induced writhing assay. Rats were administered the various compounds by oral gavage at a screening dose of 20 mg/kg 20 min before i.p. injection with 2 ml/kg of 3% acetic acid. 10 min later animals were assessed for writhing as indicated in the methods section. […] Thus, several of the Arg modifications can impart CR665 with the ability to cross the gut barrier. Compounds 3, 7, 9, 11 and 17 were selected for further analysis.

kappa opioid receptor, sequence (P41145 whole entry): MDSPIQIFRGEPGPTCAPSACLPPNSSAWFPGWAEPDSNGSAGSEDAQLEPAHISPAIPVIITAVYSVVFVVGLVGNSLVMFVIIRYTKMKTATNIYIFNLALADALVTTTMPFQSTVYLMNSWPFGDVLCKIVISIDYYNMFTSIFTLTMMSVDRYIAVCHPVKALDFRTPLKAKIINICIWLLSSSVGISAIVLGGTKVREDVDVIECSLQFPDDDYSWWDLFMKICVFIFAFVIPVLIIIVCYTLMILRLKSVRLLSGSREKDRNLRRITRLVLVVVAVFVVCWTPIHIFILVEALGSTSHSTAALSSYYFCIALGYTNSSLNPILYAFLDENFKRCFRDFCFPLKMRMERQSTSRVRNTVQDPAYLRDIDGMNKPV

CCCC[C@@H](NC(=O)[C@@H](Cc1ccccc1)NC(=O)[C@H](N)Cc1ccccc1)C(=O)N[C@H](CCCCN(C)C)C(=O)NCc1ccncc1 [Compound 9]
EC50, activation of kappa opioid receptor (kappa opioid receptor; PathHunter Beta-Arrestin): low nM range
EC50 (kappa opioid receptor; PathHunter Beta-Arrestin, 3-6 repeats, read-out: 95% confidence levels of EC50, activation of kappa receptors): 15.3 to 54.5 nM
agonist selectivity for kappa over both mu- and delta-opioid receptors (kappa opioid receptor; minimal estimate): > 33,400
EC50, i.v. dose response in writhing assay ([1]; i.v.): 0.032 mg/kg
EC50, oral dose-response in acetic acid writhing model ([1]; oral): 4.7 mg/kg
